The term EC50 denotes the midpoint of the concentration-response curve. Usually CC50 stands for the concentration giving 50% cytotoxicity. Low readings indicate harm at low concentration, high ones better tolerance by the cells.

Data set [1] has as its system Plasmodium falciparum. The data set is described as follows: NOVARTIS: Inhibition of Plasmodium falciparum W2 (drug-resistant) proliferation in erythrocyte-based infection assay. Type of data set: functional, organism-based. The settings on record: Plasmodium falciparum, W2; read-out: EC50.
The test system of data set [2] is Plasmodium falciparum. The data set is described as follows: NOVARTIS: Inhibition of Plasmodium falciparum 3D7 (drug-susceptible) proliferation in erythrocyte-based infection assay. Type of data set: functional, organism-based. The settings on record: Plasmodium falciparum, 3D7.
The nature of data set [3]: NOVARTIS: Cytotoxicity against human hepatocellular carcinoma cell line (Huh7). It is filed as toxicity, cell-based, Huh-7. The settings on record: Huh7 cells (hepatocellular carcinoma cell line).

Structures are written as SMILES.

On to `CC[C@@H]1CN2CC[C@H]1C[C@H]2[C@H](O)c1ccnc2ccc(OC)cc12`, for which the figures for the EC50 in data set [1] and in data set [2] were 298 nM and 103 nM, respectively. The molecule also registered a CC50 in data set [3] above 6250 nM.
For `Cc1cc(Nc2cccc(C(F)(F)F)c2)nc(N)n1`, the EC50 is 1860 nM in data set [1] and 676 nM in data set [2]. In data set [3], the CC50 was found to be 39600 nM.
In the case of `COc1ccc(CCN2C(=O)c3ccc(Oc4ccc(NC(=O)c5oc(=O)c6ccccc6c5-c5ccccc5)cc4)cc3C2=O)cc1OC`, the results for the EC50 in data set [1] and in data set [2] were 4800 nM and above 12500 nM, respectively. Also, the 50% cytotoxic concentration (CC50) in data set [3] was above 100000 nM.
With `OCCNc1nc(Nc2ccc(Br)cc2)nc2ccccc12`, the concentration for a half-maximal effect (EC50) was determined as 566 nM in data set [1] and 490 nM in data set [2]. The molecule also registered a CC50 in data set [3] of 12000 nM.
Turning to `COc1ccc2nc(-c3ccccc3)cc(NCCN(C)C)c2c1`, the EC50 amounted to 478 nM in data set [1] and 171 nM in data set [2]. The molecule further had a CC50 in data set [3] above 10000 nM.
Consider `COc1ccccc1C(=O)N1CCN(Cc2ccc3ccccc3c2)CC1`, for which the EC50 is 4860 nM in data set [1] and above 12500 nM in data set [2]. Moreover, the CC50 in data set [3] was above 100000 nM.
Taken in the same sequence, the figures for `O=C(CN1C(=O)c2ccccc2C1=O)Nc1cc(Cl)ccc1C(=O)O` were 486 nM, above 1250 nM and above 10000 nM.
For `COc1ccccc1CN1CCC(S(=O)(=O)c2ccccc2)CC1` the same measures were 52.3 nM, 349 nM and 1080 nM.
As to `CN(C)C(=O)C1C2NC(=S)N(c3ccccc3)C1(C)Oc1ccccc12` (stereo not given), the EC50 in data set [1] worked out at 483 nM; in data set [2], 1750 nM. This molecule also showed a CC50 in data set [3] above 10000 nM.
Regarding `O=C(Cn1ccc(=NCc2ccccc2)cc1)c1ccc(Cl)cc1`, the EC50 in data set [1] was 602 nM; in data set [2], 296 nM. In addition, the CC50 in data set [3] was determined as 12800 nM.
Take `CC(C)CC(N)C(=O)N1CCc2nc(Cc3ccc(F)cc3Cl)sc2C1` (stereo not given): the EC50 is 471 nM in data set [1] and above 1250 nM in data set [2]. In data set [3], this molecule came in with a CC50 above 10000 nM.
For `O=C(Nc1ccccc1C(=O)O)c1cccc(NC(=O)c2ccco2)c1` the same measures were 471 nM, above 947 nM and above 10000 nM.
With `COc1ccc(NC(=O)c2cccc([N+](=O)[O-])c2C)cc1`, the results for the EC50 in data set [1] and in data set [2] were 4770 nM and above 3550 nM, respectively. In addition, the CC50 in data set [3] was above 100000 nM.
`CCN1CCC(Nc2ccnc3cc4ccccc4cc23)CC1`: the figures for the EC50 in data set [1] and in data set [2] were 477 nM and 81.5 nM, respectively. Further, the CC50 in data set [3] was above 10000 nM.
As for `Cc1ccccc1-c1cnnc(NCC2CCCCO2)n1` (stereo not given), the EC50 in data set [1] came to 4820 nM; in data set [2] it was 11100 nM. For the same molecule, the CC50 in data set [3] is above 100000 nM.
With `CCC(c1nc2ccccc2c(=O)n1CCOC)N1CCNCC1` (stereo not given), the results for the EC50 in data set [1] and in data set [2] were above 469 nM and 369 nM, respectively. The same molecule gave a CC50 in data set [3] above 10000 nM.
Taken in the same sequence, the figures for `CN1CCc2c(C#N)c(N3CCCC3)nc(N3CCCC3)c2C1` were 4820 nM, 2120 nM and above 100000 nM.
As for `CCCCCN(C(=O)c1cccc(F)c1)C(CC)c1nc2ccccc2c(=O)n1-c1ccc(Cl)cc1C` (stereo not given), the EC50 was 480 nM in data set [1] and 1460 nM in data set [2]. For the same molecule, in data set [3], the CC50 was above 10000 nM.
`CCOC(=O)C1CSC(c2ccc(C(F)(F)F)cc2)N1C(=O)/C=C/c1ccccc1` (stereo not given): the values for the EC50 in data set [1] and in data set [2] were 381 nM and above 1340 nM, respectively. The molecule also gave a CC50 in data set [3] above 7950 nM.
In the case of `COc1ccc(NC(=O)c2cc3cc(C4(O)CCN(CC(C)(C)C)CC4)ccc3o2)cc1OC`, the EC50 in data set [1] was 480 nM; in data set [2], above 1250 nM. The same molecule returned a CC50 in data set [3] above 10000 nM.
With `COc1ccc(/C=C/c2nc(=O)c3ccccc3o2)cc1`, the values for the EC50 in data set [1] and in data set [2] were 480 nM and 1240 nM, respectively. Also, the CC50 in data set [3] was above 10000 nM.
With `Cc1ccccc1C(=O)NCCCCNc1ccnc2cc(Cl)ccc12`, the EC50 in data set [1] came out at 479 nM; in data set [2] it was 450 nM. The CC50 in data set [3] was above 10000 nM.
For `O=C(NCCCCNc1ccnc2cc(Cl)ccc12)C1CCCC1` the same measures were 485 nM, 409 nM and above 10000 nM.
Consider `COc1ccc(S(=O)(=O)NCCCCNc2ccnc3cc(Cl)ccc23)cc1`, for which the EC50 in data set [1] stood at 484 nM; in data set [2] it was 345 nM. In data set [3], this molecule had a CC50 above 10000 nM.
For the molecule `CN(C)c1cc[n+](Cc2ccccc2)cc1`, the EC50 in data set [1] was above 4870 nM; in data set [2], 2420 nM. Further, the CC50 in data set [3] was above 100000 nM.
For `CCOC(=O)C1=C(C)N=c2sc(=Cc3c4ccccc4cc4ccccc34)c(=O)n2C1c1cc(OC)ccc1OC` (stereo not given) the same measures were 4770 nM, above 12500 nM and above 100000 nM.
In the case of `CCCCOC(=O)Cc1ccc(N)cc1`, the EC50 in data set [1] was 284 nM; in data set [2], 462 nM. The molecule further had a CC50 in data set [3] of 5970 nM.
As to `COc1ccc(CN(Cc2cc3cccc(C)c3[nH]c2=O)C(=S)NC2CCCCC2)cc1`, the EC50 in data set [1] was 487 nM; in data set [2] it was above 1250 nM. Besides, the CC50 in data set [3] was above 10000 nM.
For the molecule `O=C(Nc1ccc(Oc2cccc(Oc3ccc(NC(=O)c4ccc(Br)o4)cc3)c2)cc1)c1ccc(Br)o1`, the EC50 in data set [1] was 4710 nM; in data set [2], 4420 nM. The same molecule returned a CC50 in data set [3] above 100000 nM.
`O=C(NC1CC1)C1CCN(S(=O)(=O)c2ccc(Cl)cc2)CC1`: the values for the EC50 in data set [1] and in data set [2] were 4720 nM and 5000 nM, respectively. Also, the CC50 in data set [3] is above 100000 nM.
`Cc1ccc(-c2cc(-c3cc(Cl)ccc3O)on2)cc1`: the EC50 was 472 nM in data set [1] and above 798 nM in data set [2]. The molecule also had a CC50 in data set [3] above 10000 nM.
Take `Cc1ccc2nc3c(c(Nc4ccc(N(C)C)cc4)c2c1)CCC3`: the results for the EC50 in data set [1] and in data set [2] were 950 nM and 1790 nM, respectively. For the same molecule, in data set [3], the CC50 is 19800 nM.
Taken in the same sequence, the figures for `O=C(c1ccc([N+](=O)[O-])cc1[N+](=O)[O-])N1CCCCC1` were 4860 nM, above 12500 nM and above 100000 nM.
With `Cc1cc(N2CCCC2)nc2ccc(NC(=S)NCCCN3CCc4ccccc4C3)cc12`, the EC50 was determined as 924 nM in data set [1] and 263 nM in data set [2]. The CC50 in data set [3] came to 19100 nM.
`COc1cc(OC)nc(CSc2ccc(NC(=O)CCl)cc2)n1`: the EC50 in data set [1] amounted to 479 nM; in data set [2], 518 nM. In data set [3], this molecule displayed a CC50 above 10000 nM.
Taken in the same sequence, the figures for `O=C(Nc1ccc(N2CCCCC2)cc1)N1CCc2nc[nH]c2C1c1ccc(Cl)cc1` (stereo not given) were 239 nM, 640 nM and above 5040 nM.
For `Fc1ccc(CSc2nc3cccnc3[nH]2)cc1`, the EC50 was 4800 nM in data set [1] and 3620 nM in data set [2]. The CC50 in data set [3] was above 100000 nM.
As for `c1ccc(N=c2n(-c3ccccc3)c(=Nc3ccccc3)n(-c3ccccc3)c(=Nc3ccccc3)n2-c2ccccc2)cc1`, the concentration giving a half-maximal response (EC50) in data set [1] is above 468 nM; in data set [2], above 1350 nM. This molecule showed a CC50 in data set [3] above 10000 nM.
Consider `COc1cc(C(=O)Nc2cnc3ccccc3c2)ccc1-n1cnnn1`, for which the results for the EC50 in data set [1] and in data set [2] were 4750 nM and 3980 nM, respectively. In addition, the CC50 in data set [3] is above 100000 nM.
For `COc1cc(OC)cc(C(=O)N2CCC(C(=O)Nc3cccc4ccccc34)CC2)c1` the same measures were 485 nM, above 481 nM and above 10000 nM.

Source of the values: ChEMBL document CHEMBL1156829 (Proc Natl Acad Sci U S A, 2008).
